Data: US12059393B2, “Compositions for topical treatment of radiation dermatitis” (Akos Biosciences, Inc, priority 2022, dated 2024)

Assays:
[1] = Body weight change in irradiated mice; type: in vivo, Balb/c mice
Protocol: A study was performed on mice to determine the efficacy of topically-dosed CBD in an olive oil vehicle for the treatment of acute radiation-induced dermatitis. Three different CBD dosages were used— 30 mg/mL (3 wt %), 120 mg/mL (12 wt %), and 250 mg/mL (25 wt %).
144 female Balb/c mice with an average starting body weight (±SEM) of 17.96±0.12 grams were randomized into six (6) groups of 24 animals each, as follows:
The control group (Group 1) was not irradiated. The animals in Groups 2-6 were anesthetized via a single intraperitoneal injection of xylazine and ketamine prior to being administered a single dose of 30 Grays (Gy) of radiation directed at a 2 cm×4 cm patch of shaved dorsal skin on Day 0. Radiation was generated by a 160 kVp (15-ma) X-ray source at a focal distance of 10 cm, hardened with a 0.35 mm Cu filtration system at a rate of approximately 3.2 Gy/minute.
Dosing for animals in Groups 3-6 began on Day 0 immediately after radiation. Treatments were administered topically (0.1 mL per animal) daily from Days 0-28.
Starting on Day 8 and continuing every other day thereafter (Days 8-28), each animal was evaluated for skin redness and dermatitis, and photographed for subsequent blinded scoring of dermatitis at the completion of the study. Body weight was taken daily.

[2] = system: 3D in vitro skin model containing epidermal keratinocytes and dermal fibroblasts; experiment: Gene expression changes (178 genes) in 3D in vitro skin model; type: cell-based; details: for Regulated genes (function): UV exposed tissues, baseline Group K
Protocol: A 3D in vitro skin model containing epidermal keratinocytes and dermal fibroblasts was used. Some tissues were irradiated with 200 mJ UVB/cm^2. Test materials were applied topically for 24 hours (after UVB exposure) and an MTT assay was used to check the viability of cells. The following treatment groups were used: • olive oil (no CBD); • CBD in olive oil in concentrations of 30, 60, 120, and 250 mg/mL; • No treatment; and • Triton-X® as positive control.
Next, changes in gene expression for 178 genes were measured in tissues. Statistical significance was determined using unpaired t-test, P<0.05, N=4.

C=C(C)[C@@H]1CCC(C)=C[C@H]1c1c(O)cc(CCCCC)cc1O [CBD, 2-[(1R,6R)-6-Isopropenyl-3-methylcyclohex-2-en-1-yl]-5-pentylbenzene-1,3-diol]
Percent weight change over time ([1]; 30 mg/mL and 120 mg/mL CBD groups, topical daily Days 0-28, FIG. 1): most closely followed the curve of the naïve group | Percent weight change, difference between CBD-treated groups and the other three groups ([1]; three CBD-treated groups (30, 120, 250 mg/mL)): not found to be statistically significant | Regulated genes (function) ([2]; 30 mg/mL CBD in olive oil (Group G)): associated with cell renewal, tissue remodeling, anti-apoptotic pathway, and extracellular matrix integrity | Regulated genes (function) ([2]; 120 mg/mL CBD in olive oil (Group I)): associated with antioxidant/stress response | Genes with FC of 2 or greater ([2]; CBD in olive oil 30-250 mg/mL (Groups B-E), healthy tissues, baseline Group A (olive oil)): four
